Results from patent publication US20130143929A1, “FUNGICIDAL IMIDAZOLES” (EI DU PONT DE NEMOURS AND COMPANY, priority 2010, published 2013).
Marks after values point to notes of the source that are not given here.

Experiments:
Type in all cases: in vivo
[1] = tested on: Puccinia recondite f. sp. tritici (the causal agent of wheat leaf rust); assay: Test A: wheat leaf rust, preventive spray on wheat seedlings, visual disease rating; details: for Test A rating (100 = 100% disease control, 0 = no disease control relative to the controls): wheat leaf rust, preventive spray on wheat seedlings; for Test A rating (% disease control, wheat leaf rust): 100 = 100% disease control
How it was run: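 Wheat seedlings were sprayed to run-off with compound suspended in acetone/water containing 250 ppm Trem 014 (200 ppm ≈ 800 g/ha; some at 40 ppm). Puccinia recondite spores were inoculated the next day. Plants were held 24 h saturated at 20° C, then 7 days at 20° C, and disease control was rated visually on a 0–100 scale against controls.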

[2] = tested on: Botrytis cinerea (the causal agent of tomato Botrytis); assay: Test C: tomato Botrytis, preventive spray on tomato seedlings, visual disease rating; details: for Test C rating (100 = 100% disease control, 0 = no disease control relative to the controls): tomato Botrytis, preventive spray on tomato seedlings; for Test C rating (% disease control, tomato Botrytis): 100 = 100% disease control
How it was run: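 Test suspension (acetone/water with 250 ppm Trem 014; 200 ppm equivalent to 800 g/ha) sprayed to run-off on tomato seedlings; B. cinerea spores inoculated next day. After 48 h saturated humidity at 20° C then 3 days at 24° C, disease rated visually as % control relative to untreated controls (0–100).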

[3] = tested on: Blumeria graminis f. sp. tritici (also known as Erysiphe graminis f. sp. tritici, the causal agent of wheat powdery mildew); assay: Test D: wheat powdery mildew, preventive spray on wheat seedlings, visual disease rating; details: for Test D rating (100 = 100% disease control, 0 = no disease control relative to the controls): wheat powdery mildew, preventive spray on wheat seedlings; for Test D rating (% disease control, wheat powdery mildew): 100 = 100% disease control
How it was run: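 Compound suspended in acetone/water (50/50) with 250 ppm Trem 014 and sprayed to run-off on wheat seedlings (200 ppm ≈ 800 g/ha), then inoculated next day with spore dust. Disease rated visually after 8 days at 20 °C as % control relative to untreated plants (0-100).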

[4] = tested on: Septoria tritici (the causal agent of wheat leaf blotch); assay: Test B: wheat leaf blotch, preventive spray on wheat seedlings, visual disease rating; details: for Test B rating (100 = 100% disease control, 0 = no disease control relative to the controls): wheat leaf blotch, preventive spray on wheat seedlings; for Test B rating (% disease control, wheat leaf blotch): 100 = 100% disease control
How it was run: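 Wheat seedlings sprayed to run-off with compound suspension (acetone/water with 250 ppm Trem 014; 200 ppm ≈ 800 g/ha, some at 40 ppm), inoculated next day with Septoria tritici spores. 48 h saturated humidity at 24 °C, then 19 days at 20 °C; visual rating, 100 = full control.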

[5] = no asterisk (standard test suspension concentration, not 40 ppm)
[6] = no asterisk: standard test suspension concentration, 0 = no control relative to controls
[7] = asterisk: 40 ppm test suspension
[8] = asterisk: 40 ppm test suspension, 0 = no control

| SMILES | Test A rating (100 = 100% disease control, 0 = no disease control relative to the controls) [1, 5] [%] | Test C rating (100 = 100% disease control, 0 = no disease control relative to the controls) [2, 5] [%] | Test D rating (100 = 100% disease control, 0 = no disease control relative to the controls) [3, 5] [%] | Test B rating (100 = 100% disease control, 0 = no disease control relative to the controls) [4, 5] [%] | also measured |
| --- | --- | --- | --- | --- | --- |
| Cc1cc(F)ccc1C(O)c1cnc(C)n1-c1ccc(F)cc1Br (stereo not drawn) [compound 138] | 89 | 0 | 0 | 28 | – |
| OC(c1ccc(F)cc1F)c1c(Br)ncn1-c1ccc(F)cc1Cl (stereo not drawn) [compound 63] | 96 | 98 | 0 | 59 | – |
| Cc1cc(F)ccc1C(O)c1cnc(C)n1-c1c(F)cccc1Br (stereo not drawn) [compound 405] | – | – | – | – | Test A rating (% disease control, wheat leaf rust) [1, 6]: 99%; Test C rating (% disease control, tomato Botrytis) [2, 6]: 9%; Test D rating (% disease control, wheat powdery mildew) [3, 6]: 0%; Test B rating (% disease control, wheat leaf blotch) [4, 6]: 94% |
| COc1cc(F)c(C(O)c2c(Br)nc(C)n2-c2ccc(F)cc2F)c(F)c1 (racemic) [compound 258] | 100 | 79 | 0 | 95 | – |
| COc1ccc(C(O)c2c(Cl)nc(C)n2-c2c(F)cccc2F)c(Cl)c1 (stereo not drawn) [compound 143] | – | – | – | – | Test A rating (100 = 100% disease control, 0 = no disease control relative to the controls) [1, 7]: 100* %; Test C rating (100 = 100% disease control, 0 = no disease control relative to the controls) [2, 7]: 99* %; Test D rating (100 = 100% disease control, 0 = no disease control relative to the controls) [3, 7]: 99* %; Test B rating (100 = 100% disease control, 0 = no disease control relative to the controls) [4, 7]: 100* % |
| Cc1cc(F)ccc1C(O)c1c(Br)nc(C)n1-c1c(F)cccc1Br (stereo not drawn) [compound 406] | – | – | – | – | Test A rating (% disease control, wheat leaf rust) [1, 6]: 100%; Test C rating (% disease control, tomato Botrytis) [2, 6]: 43%; Test D rating (% disease control, wheat powdery mildew) [3, 6]: 56%; Test B rating (% disease control, wheat leaf blotch) [4, 6]: 100% |
| OC(c1ccc(F)cc1Cl)c1cnc(C2CC2)n1-c1c(F)cccc1Br (stereo not drawn) [compound 75] | 94 | 0 | 0 | 1 | – |
| Cc1cc(F)ccc1C(O)c1c(Cl)nc(Cl)n1-c1ccc(F)cc1Cl (single isomer, unassigned) [compound 50] | 100 | 100 | 90 | 100 | – |
| Cc1nc(Br)c(C(O)c2cccnc2)n1-c1c(F)cc(F)cc1F (stereo not drawn) [compound 182] | 68 | 0 | 21 | 100 | – |
| Cc1nc(Cl)c(C(O)c2ccc(F)cc2Br)n1-c1c(F)cccc1F (stereo not drawn) [compound 383] | – | – | – | – | Test A rating (% disease control, wheat leaf rust) [1, 8]: 100* %; Test C rating (% disease control, tomato Botrytis) [2, 8]: 99* %; Test D rating (% disease control, wheat powdery mildew) [3, 8]: 92* %; Test B rating (% disease control, wheat leaf blotch) [4, 8]: 100* % |
| COc1ccc(C(O)c2c(Br)nc(C)n2-c2c(F)cccc2Cl)c(Cl)c1 (racemic) [compound 276] | – | – | – | – | Test A rating (100 = 100% disease control, 0 = no disease control relative to the controls) [1, 7]: 100* %; Test C rating (100 = 100% disease control, 0 = no disease control relative to the controls) [2, 7]: 100* %; Test D rating (100 = 100% disease control, 0 = no disease control relative to the controls) [3, 7]: 100* %; Test B rating (100 = 100% disease control, 0 = no disease control relative to the controls) [4, 7]: 100* % |
| Cc1ncc(C(O)c2ccc(F)cc2Cl)n1-c1c(F)cc(F)cc1Cl (stereo not drawn) [compound 370] | 100 | 100 | 0 | 100 | – |
| Cc1cccc(C)c1-n1c(C)nc(Br)c1C(O)c1ccc(F)cc1Cl (racemic) [compound 225] | 89 | 37 | 0 | 83 | – |
| Cc1nc(Cl)n(-c2ccc(F)cc2Cl)c1C(O)c1c(F)cccc1F (stereo not drawn) [compound 46] | 100 | 100 | 100 | 100 | – |
| Cc1nc(Br)c(C(O)c2ccc(F)cc2Cl)n1-c1ccc(F)cc1Br (stereo not drawn) [compound 190] | 100 | 99 | 0 | 100 | – |
| OC(c1ccc(F)cc1Cl)c1c(Cl)nc(C2CC2)n1-c1c(F)cccc1Br (stereo not drawn) [compound 151] | 74 | 0 | 64 | 100 | – |
| COc1ccc(-n2c(Cl)nc(Cl)c2C(O)c2ccc(F)cc2F)c(F)c1 (stereo not drawn) [compound 328] | – | – | – | – | Test A rating (100 = 100% disease control, 0 = no disease control relative to the controls) [1, 7]: 100* %; Test C rating (100 = 100% disease control, 0 = no disease control relative to the controls) [2, 7]: 100* %; Test D rating (100 = 100% disease control, 0 = no disease control relative to the controls) [3, 7]: 64* %; Test B rating (100 = 100% disease control, 0 = no disease control relative to the controls) [4, 7]: 100* % |
| Cc1nc(Cl)c(C(O)c2ccc(F)cc2Cl)n1-c1ccc(F)cc1Br (stereo not drawn) [compound 130] | 99 | – | 0 | 100 | Test C rating (100 = 100% disease control, 0 = no disease control relative to the controls) [2, 7]: 87* % |
| COc1ccc(C(O)c2c(Cl)nc(Cl)n2-c2ccc(F)cc2F)c(Cl)c1 (racemic) [compound 236] | – | – | – | – | Test A rating (100 = 100% disease control, 0 = no disease control relative to the controls) [1, 7]: 100* %; Test C rating (100 = 100% disease control, 0 = no disease control relative to the controls) [2, 7]: 100* %; Test D rating (100 = 100% disease control, 0 = no disease control relative to the controls) [3, 7]: 99* %; Test B rating (100 = 100% disease control, 0 = no disease control relative to the controls) [4, 7]: 100* % |
| OC(c1ccc(F)cc1Br)c1c(Cl)nc(C2CC2)n1-c1c(F)cccc1Br (stereo not drawn) [compound 72] | 79 | 0 | 43 | 100 | – |
| Cc1ncc(C(O)c2ccc(F)cc2Cl)n1-c1c(F)cccc1Br (stereo not drawn) [compound 73] | 100 | 99 | 0 | 100 | – |
